Results as given in patent US10925960B2, “Antigen delivery system” (SRI INTERNATIONAL, priority 2014, dated 2021).

test system: LLC1 cells; assay: Coculture of liposome-treated LLC1 cells with lymphocytes from H250-vaccinated C57BL/6 mice, IFNγ secretion; type: cell-based, mouse; settings: LLC1 cells treated with H1299.3-targeted liposomes containing H250 in presence of inhibitor, fixed, cocultured with lymphocytes
Experimental: We then generated murine CD8+ cells with TCR that recognizes MHC class I loaded H250 (1) by vaccinating C57BL/6 mice with an extended version of H250 and subsequently harvesting lymphocytes as a source of CD8+ T cells. LLC1 cells were treated with control or H1299.3-targeted liposomes containing H250, washed, and then incubated.
After allowing trafficking of the peptides to occur, the LLC1 cells were fixed and cocultured with lymphocytes as previously described.

Row | Compound | Effect of inhibitor on IFNγ secretion / H250 presentation
1 | CN(C)CCCN1c2ccccc2Sc2ccc(Cl)cc21 [Chlorpromazine] | reduced presentation
2 | C[C@@H]1[C@H](O)[C@@H](C)/C=C/C=C/CC/C=C/C=C/C=C/C=C/C(O[C@H]2O[C@H](C)[C@@H](O)[C@H](N)[C@@H]2O)CC2O[C@](O)(CC(O)C(O)CCC(O)CC(O)CC(O)CC(=O)O[C@H]1C)CC(O)C2C(=O)O (stereo partly drawn) [Nystatin] | no effect
3 | CCN(CC)CCCC(C)Nc1ccnc2cc(Cl)ccc12 (stereo not drawn) [chloroquine] | significant reduction in IFNγ secretion
